Measured values as given in publication PMC9187519, “In vivo visualization of fluorescence reflecting CDK4 activity in a breast cancer mouse model” (MedComm, 2022).

Tests used:
[1] = test system: CDK4 kinase activity in T‐47D cells; experiment: Cell microplate fluorescence imaging with CPP30‐Lipo/CDKACT4 in T‐47D; assay type: cell-based, human; details: different concentrations of palbociclib, n=3
Description: (§1) Cells (∼8 × 10^3 cells per well) were seeded in black 96‐well plates and incubated with CPP30‐Lipo/CDKACT4 for 12 h after siRNA transfection or treatment with graded concentrations of palbociclib (HY‐50767; Medchemexpress). Then, the cells were washed three times with PBS and refilled with fresh PBS. Cell fluorescence signals were immediately detected using the IVIS Lumina II imaging system (PerkinElmer).

[2] = test system: MCF‐7 cells; experiment: Cell cycle analysis (propidium iodide, flow cytometry); assay type: cell-based, human; details: MCF‐7, increasing concentration of palbociclib, n = 3
Description: Cells were harvested and fixed in 70% ethanol at 4 °C overnight. Then, the samples were incubated in a solution of 10 mg/ml RNase and 1 mg/ml propidium iodide (Yeasen Biotech) at 37 °C for 30 min in the dark. The DNA content was determined using flow cytometry (Becton, Dickinson & Co.).

[3] = test system: pRb (S795) in MCF‐7 cells; experiment: Western blot of pRb (S795); assay type: cell-based, human
Description: Cells or minced tumor tissues were washed three times with ice‐cold PBS and lysed in RIPA buffer containing protease inhibitor cocktail (Roche Molecular Systems) and phosphatase inhibitor cocktail (Bimake). Tissues were further ground using a glass homogenizer on ice. Protein concentrations were determined with a BCA kit (Solarbio). Subsequent steps were performed as recently described.[36]

[4] = biological target: T1, CDK4/Cyclin D (Homo sapiens, UniProt P11802); experiment: CDKACT4 biosensor fluorescence in MCF‐7 cell extracts; assay type: biochemical; details: incubation with cell extracts prepared with different concentrations of palbociclib, n = 5
T1 construct: Fluorescence changes of CDKACT4 biosensor incubated with MCF‐7 cell extracts; endogenous in cells; host or cells: MCF-7 breast cancer cell extracts
Description: We initially determined whether the CDKACT4 peptide biosensor that we synthesized was effective at monitoring CDK4 kinase activity in MCF‐7 breast cancer cell extracts.
FIGURE 2 Characterization and spectral stability of CPP30‐Lipo/CDKACT4. (A) Fluorescence changes of CDKACT4 biosensor incubated with MCF‐7 cell extracts (red), CDKACT4 alone (blue), and cell extracts alone (green) during 180 min (n = 5). (B) Relative fluorescence intensity of CDKACT4 biosensor incubated with MCF‐7 cell extracts was monitored over time after treatment with different concentrations of palbociclib (n = 5). (C) Relative fluorescence intensity of MCF‐7 cell extracts‐incubated CDKACT4 at 120 min post‐treated with different concentrations of palbociclib from (b) (n = 5, **p < 0.01). (D) Transmission electron microscopy (TEM) images of CPP30‐Lipo/CDKACT4. Scale bar = 200 nm. (E) Diameter distribution of CPP30‐Lipo/CDKACT4. (F, G) UV–vis absorption spectra (F) and fluorescence emission spectra (G) of water, 5‐TAMRA, CDKACT4, and CPP30‐Lipo/CDKACT4. (H, I) Changes in absorption and fluorescence spectra of CPP30‐Lipo/CDKACT4 during 96 h in water. The samples were stored at room temperature in the dark

[5] = test system: MCF‐7 tumor xenografts; experiment: In‐vivo fluorescence imaging, MRI and tumor analysis of MCF‐7 tumor xenografts; design: species or system BALB/c nude mice; details: for change of tumor/muscle (T/M) fluorescence signal ratio: 150 mg/kg daily oral gavage 7 days, pre vs post, average, n = 6
Description: For MCF‐7 tumor model establishment, 6–8‐week old female BALB/c nude mice purchased from Xiamen University Laboratory Animal Center were first subcutaneously implanted with 60‐day release 17β‐estradiol pellets (Innovative Research of America) in the right side of the neck. Three days later, 2 × 10^6 MCF‐7 cells were injected subcutaneously in 1:1 PBS:Matrigel (BioCoat) into the right leg of the nude mice. Tumors were measured by caliper two or three times per week.
When MCF‐7 tumors grew to a volume of 75–100 mm^3, the mice were randomly divided into two groups (n = 6) and given palbociclib (150 mg/kg diluted in […] sodium D‐lactate) or sterile water daily by oral gavage. Magnetic resonance imaging was performed before (0 days) and 7 days after treatment using a 9.4T BioSpec MicroMRI (Bruker), and fluorescence imaging was also performed using the IVIS Lumina II imaging system (PerkinElmer) at the observation time points after intravenous injection with CPP30‐Lipo/CDKACT4 (10 μl/g body weight, containing 30 μM CDKACT4). After imaging, tumor tissue was collected for IHC staining.
Tumors were fixed in 4% paraformaldehyde, embedded in paraffin, and cut into 4‐μm slices. Then, the sections were stained with rabbit monoclonal antibody to Rb (Phospho S795) (1:100 dilution, ab47474; Abcam) or Ki67 (1:500 dilution, 9449; CST). Finally, the sections were observed under an optical microscope.

[6] = test system: CDK4 kinase activity in MCF‐7 cells; experiment: Cell microplate fluorescence imaging with CPP30‐Lipo/CDKACT4; assay type: cell-based, human; details: n = 3; for reduction of fluorescence intensity: probe 12 h
Description: as §1

[7] = test system: CDK4; design: method as in PMID 31482107; details: for CDK4; cited from earlier work
Excerpt: We next investigated whether CPP30‐Lipo/CDKACT4 could be used to monitor the inhibition by the CDK4 inhibitor palbociclib in living cells.

T1 sequence (P11802 2-303 limits assumed): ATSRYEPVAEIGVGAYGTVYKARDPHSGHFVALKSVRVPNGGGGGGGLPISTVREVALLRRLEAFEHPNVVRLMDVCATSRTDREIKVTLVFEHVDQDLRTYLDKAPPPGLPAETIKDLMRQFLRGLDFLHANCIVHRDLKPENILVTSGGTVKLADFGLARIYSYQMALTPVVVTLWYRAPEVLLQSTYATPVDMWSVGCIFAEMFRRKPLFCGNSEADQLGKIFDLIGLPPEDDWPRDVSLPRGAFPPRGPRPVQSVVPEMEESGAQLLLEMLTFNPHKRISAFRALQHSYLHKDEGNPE
T1 sequence (P24385 whole entry partner): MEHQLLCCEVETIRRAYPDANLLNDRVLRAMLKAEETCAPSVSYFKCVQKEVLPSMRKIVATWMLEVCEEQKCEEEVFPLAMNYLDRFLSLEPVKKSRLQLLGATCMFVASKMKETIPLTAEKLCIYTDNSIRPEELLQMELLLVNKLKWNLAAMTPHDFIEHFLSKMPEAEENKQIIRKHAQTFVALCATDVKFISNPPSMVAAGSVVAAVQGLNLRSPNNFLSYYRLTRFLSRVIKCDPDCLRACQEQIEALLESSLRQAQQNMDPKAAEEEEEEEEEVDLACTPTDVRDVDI

SMILES	fluorescence intensity of CPP30‐Lipo/CDKACT4 [1]	cells arrested in the G1 phase [2]	pRb (S795) protein level [3]	fluorescence of the CDKACT4 peptide biosensor [4]	change of tumor/muscle (T/M) fluorescence signal ratio ([5]; 12 h after caudal vein injection of probe)	change of tumor/muscle (T/M) fluorescence signal ratio ([5]; 24 h after caudal vein injection of probe)	change of tumor/muscle (T/M) fluorescence signal ratio ([5]; 48 h after caudal vein injection of probe)	longest diameter of the tumor by MRI ([5]; 150 mg/kg daily, day 0 vs day 7, n = 6)	tumor growth ([5]; after 14 days of treatment, n = 4)	percentage of cells positive for pRb in tumors ([5]; baseline vs day 7, immunohistochemical staining pRb (S795))	tumor volume versus control group ([5]; during the 7 days of treatment, caliper)	ex vivo fluorescence intensity of tumors versus control group ([5]; palbociclib 7 days, 48 h post‐injection of probe, n = 3, p < 0.05)	Ki‐67 staining in tumors ([5]; palbociclib 7 days, immunohistochemical staining)	fluorescence intensity under a microscope ([6]; MCF‐7, confocal/fluorescence microscopy after incubation with probe)	reduction of fluorescence intensity ([6]; MCF‐7, inhibitor 10 nM)	reduction of fluorescence intensity ([6]; MCF‐7, inhibitor 100 nM)	reduction of fluorescence intensity ([6]; MCF‐7, inhibitor 1000 nM)	IC50 [7]
CC(=O)c1c(C)c2cnc(Nc3ccc(N4CCNCC4)cn3)nc2n(C2CCCC2)c1=O [palbociclib]	decreased with the increasing dose	up to 86.39%	dose‐dependent decrease	decreased in a dose‐dependent manner	–18.86%	–18.69%	–18.49%	no significant change	significantly inhibited	clear reductions	no significant difference	significantly lower	substantially reduced	significant dose‐dependent reduction	3.17%	44.70%	60.67%	
CCN1CCN(Cc2ccc(Nc3ncc(F)c(-c4cc(F)c5nc(C)n(C(C)C)c5c4)n3)nc2)CC1 [abemaciclib]															14.37%	50.13%	81.35%	[…]
